According to ChEMBL document CHEMBL3045077, “Intravenous pharmacokinetics and oral bioavailability of biochanin A in female rats” (Med Chem Res, 2011):

Assays:
Format in all cases: ADME, organism-based
[1] = Apparent volume of distribution in Rattus norvegicus Sprague-Dawley (rat) at 5 mg/kg, iv; design: dose 5 mg/kg, route intravenous; conditions: in vivo, read-out: Vd(app)
[2] = Total clearance in Rattus norvegicus Sprague-Dawley (rat) at 5 mg/kg, iv; design: dose 5 mg/kg, route intravenous; conditions: in vivo
[3] = Apparent elimination half life in Rattus norvegicus Sprague-Dawley (rat) at 50 mg/kg, po; design: dose 50 mg/kg, route oral; conditions: in vivo, read-out: betat1/2(app) (converted)
[4] = Apparent elimination half life in Rattus norvegicus Sprague-Dawley (rat) at 5 mg/kg, iv; design: dose 5 mg/kg, route intravenous; conditions: in vivo, read-out: betat1/2(app) (converted)

## COc1ccc(-c2coc3cc(O)cc(O)c3c2=O)cc1 [BIOCHANIN]
[1]
  Vd: 10.6 L/kg
[2]
  clearance: 262 mL/min/kg
[3]
  half-life: 13.7 h
[4]
  half-life: 1 h
